For two molecules, IC50, Km and kcat results are on record in ChEMBL document CHEMBL1156432, “Structure and regulation of the human Nek2 centrosomal kinase” (J Biol Chem, 2007).

Broadly, the IC50 is the midpoint of a concentration-inhibition curve. By Km is commonly meant the substrate concentration at which the rate is half of its maximum. For orientation: kcat means the maximal rate divided by the concentration of active sites.

Data set [1] concerns the target Platelet-derived growth factor receptor beta (Homo sapiens, UniProt P09619). Kind of data set: Inhibition of PDGFRbeta.
The target of data set [2] is Vascular endothelial growth factor receptor 2 (Homo sapiens, UniProt P35968). Kind of data set: Inhibition of VEGFR2.
The target in data set [3] is Epidermal growth factor receptor (Homo sapiens, UniProt P00533). Kind of data set: Inhibition of EGFR.
Data set [4] addresses Serine/threonine-protein kinase Nek2 (Homo sapiens, UniProt P51955, T175A). Description: Inhibition of human recombinant Nek2 T175A mutant by coupled pyruvate kinase/lactate dehydrogenase assay.
Substrate in data set [5]: CC[C@H](C)[C@H](NC(=O)[C@H](CO)NC(=O)[C@H](CO)NC(=O)[C@H](CCCNC(=N)N)NC(=O)[C@H](Cc1ccccc1)NC(=O)[C@@H](NC(=O)CN)[C@@H](C)O)C(=O)N[C@@H](CCCNC(=N)N)C(=O)N[C@@H](CCCNC(=N)N)C(=O)N[C@@H](CC(C)C)C(=O)N[C@@H](CO)C(=O)N[C@H](C(=O)N[C@@H](CCCNC(=N)N)C(=O)N[C@@H](CCCNC(=N)N)C(=O)N[C@@H](CCCNC(=N)N)C(=O)N[C@@H](Cc1ccc(O)cc1)C(=O)O)[C@@H](C)O
Kind of data set: Activity of human recombinant Nek2 T175A mutant assessed as substrate phosphorylation.

Chain of Vascular endothelial growth factor receptor 2 (P35968 whole entry): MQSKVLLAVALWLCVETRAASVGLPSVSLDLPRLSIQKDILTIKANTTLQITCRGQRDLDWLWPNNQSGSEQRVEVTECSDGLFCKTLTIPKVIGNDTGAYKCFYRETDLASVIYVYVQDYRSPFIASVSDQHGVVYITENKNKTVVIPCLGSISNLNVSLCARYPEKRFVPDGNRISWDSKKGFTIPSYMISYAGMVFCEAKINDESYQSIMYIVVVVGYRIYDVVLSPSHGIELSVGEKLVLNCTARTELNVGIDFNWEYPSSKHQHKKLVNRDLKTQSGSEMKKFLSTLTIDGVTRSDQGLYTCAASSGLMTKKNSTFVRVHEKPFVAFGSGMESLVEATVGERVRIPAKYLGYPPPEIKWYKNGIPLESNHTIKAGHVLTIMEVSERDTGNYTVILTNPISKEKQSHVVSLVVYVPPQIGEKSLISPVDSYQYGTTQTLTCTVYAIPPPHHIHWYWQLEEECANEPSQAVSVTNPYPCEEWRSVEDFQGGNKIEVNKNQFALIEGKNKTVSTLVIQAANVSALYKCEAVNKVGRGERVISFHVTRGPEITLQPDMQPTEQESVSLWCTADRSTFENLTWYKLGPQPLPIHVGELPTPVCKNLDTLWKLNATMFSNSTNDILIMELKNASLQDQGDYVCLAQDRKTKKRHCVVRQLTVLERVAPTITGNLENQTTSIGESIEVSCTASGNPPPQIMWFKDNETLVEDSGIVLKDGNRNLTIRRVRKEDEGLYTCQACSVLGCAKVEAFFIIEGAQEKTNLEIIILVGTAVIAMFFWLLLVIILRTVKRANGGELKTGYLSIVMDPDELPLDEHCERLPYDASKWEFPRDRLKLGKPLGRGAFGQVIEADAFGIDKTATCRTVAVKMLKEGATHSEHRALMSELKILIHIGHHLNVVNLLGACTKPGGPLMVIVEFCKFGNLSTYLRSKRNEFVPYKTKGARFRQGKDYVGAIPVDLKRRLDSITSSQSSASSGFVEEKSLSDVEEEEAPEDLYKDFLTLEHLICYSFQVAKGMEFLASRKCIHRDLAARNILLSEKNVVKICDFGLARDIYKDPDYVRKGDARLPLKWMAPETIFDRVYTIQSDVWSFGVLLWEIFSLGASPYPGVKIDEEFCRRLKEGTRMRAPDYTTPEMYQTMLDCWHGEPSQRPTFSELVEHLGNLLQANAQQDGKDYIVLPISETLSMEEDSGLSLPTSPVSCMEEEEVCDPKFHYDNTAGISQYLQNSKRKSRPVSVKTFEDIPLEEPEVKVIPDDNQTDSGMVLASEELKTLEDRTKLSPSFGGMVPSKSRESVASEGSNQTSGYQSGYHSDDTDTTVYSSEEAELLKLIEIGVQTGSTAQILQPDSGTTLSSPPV
Chain of Platelet-derived growth factor receptor beta (P09619 whole entry): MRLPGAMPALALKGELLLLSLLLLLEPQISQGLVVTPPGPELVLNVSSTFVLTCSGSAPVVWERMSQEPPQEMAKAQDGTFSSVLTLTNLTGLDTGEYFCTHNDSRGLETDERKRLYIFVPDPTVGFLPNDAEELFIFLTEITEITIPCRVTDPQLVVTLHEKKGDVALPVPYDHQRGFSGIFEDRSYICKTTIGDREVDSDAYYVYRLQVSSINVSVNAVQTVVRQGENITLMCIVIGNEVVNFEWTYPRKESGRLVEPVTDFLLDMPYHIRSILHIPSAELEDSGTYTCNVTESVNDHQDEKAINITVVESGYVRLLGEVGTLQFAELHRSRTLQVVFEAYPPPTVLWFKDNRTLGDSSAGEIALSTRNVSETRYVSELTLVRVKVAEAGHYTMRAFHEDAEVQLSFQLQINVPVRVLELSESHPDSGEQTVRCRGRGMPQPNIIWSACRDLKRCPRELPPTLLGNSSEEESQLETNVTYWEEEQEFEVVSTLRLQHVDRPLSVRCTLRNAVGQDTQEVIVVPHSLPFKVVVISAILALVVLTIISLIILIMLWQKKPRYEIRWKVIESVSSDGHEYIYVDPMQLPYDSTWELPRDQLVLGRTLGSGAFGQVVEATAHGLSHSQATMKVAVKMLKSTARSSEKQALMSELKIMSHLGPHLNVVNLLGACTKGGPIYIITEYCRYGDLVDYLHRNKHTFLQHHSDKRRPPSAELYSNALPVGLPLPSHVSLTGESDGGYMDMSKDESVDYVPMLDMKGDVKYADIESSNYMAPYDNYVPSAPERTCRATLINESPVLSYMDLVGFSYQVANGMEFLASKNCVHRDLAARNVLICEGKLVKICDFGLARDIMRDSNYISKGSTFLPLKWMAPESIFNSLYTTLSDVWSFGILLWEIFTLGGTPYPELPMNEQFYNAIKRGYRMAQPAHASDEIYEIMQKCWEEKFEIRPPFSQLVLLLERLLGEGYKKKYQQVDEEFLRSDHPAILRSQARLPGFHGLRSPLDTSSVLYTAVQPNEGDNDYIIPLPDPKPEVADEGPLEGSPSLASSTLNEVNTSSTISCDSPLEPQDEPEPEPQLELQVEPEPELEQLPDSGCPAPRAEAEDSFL
Chain of Epidermal growth factor receptor (P00533 whole entry): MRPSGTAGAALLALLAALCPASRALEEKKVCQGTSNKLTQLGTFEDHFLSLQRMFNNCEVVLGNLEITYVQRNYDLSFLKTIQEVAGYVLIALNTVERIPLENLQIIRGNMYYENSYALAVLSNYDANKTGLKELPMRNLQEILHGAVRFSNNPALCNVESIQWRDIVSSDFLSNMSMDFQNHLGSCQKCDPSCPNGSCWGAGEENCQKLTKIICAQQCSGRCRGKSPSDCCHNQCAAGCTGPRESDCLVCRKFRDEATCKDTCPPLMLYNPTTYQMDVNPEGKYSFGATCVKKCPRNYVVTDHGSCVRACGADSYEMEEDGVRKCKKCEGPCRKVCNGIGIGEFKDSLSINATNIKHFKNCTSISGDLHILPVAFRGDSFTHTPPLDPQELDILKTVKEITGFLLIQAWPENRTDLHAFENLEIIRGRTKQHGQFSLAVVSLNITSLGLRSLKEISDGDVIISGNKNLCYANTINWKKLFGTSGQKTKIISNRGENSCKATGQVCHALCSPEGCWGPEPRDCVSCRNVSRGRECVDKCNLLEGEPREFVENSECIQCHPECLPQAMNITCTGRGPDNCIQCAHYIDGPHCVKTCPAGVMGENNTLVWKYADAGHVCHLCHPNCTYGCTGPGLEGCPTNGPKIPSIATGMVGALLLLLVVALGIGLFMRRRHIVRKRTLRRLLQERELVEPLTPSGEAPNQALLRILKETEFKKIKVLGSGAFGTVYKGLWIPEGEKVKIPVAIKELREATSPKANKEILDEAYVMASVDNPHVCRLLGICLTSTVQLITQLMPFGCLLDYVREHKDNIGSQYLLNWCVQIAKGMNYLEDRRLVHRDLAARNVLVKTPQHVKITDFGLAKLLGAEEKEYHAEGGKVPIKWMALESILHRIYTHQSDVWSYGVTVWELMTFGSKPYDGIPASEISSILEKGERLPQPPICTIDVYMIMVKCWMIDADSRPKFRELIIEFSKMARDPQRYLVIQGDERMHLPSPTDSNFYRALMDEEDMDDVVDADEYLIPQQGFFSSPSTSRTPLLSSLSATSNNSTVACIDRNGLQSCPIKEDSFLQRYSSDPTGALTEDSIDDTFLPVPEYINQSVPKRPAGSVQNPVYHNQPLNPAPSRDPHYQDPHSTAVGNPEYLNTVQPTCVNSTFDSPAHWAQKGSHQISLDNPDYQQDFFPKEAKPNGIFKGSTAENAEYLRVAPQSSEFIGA

For `CCN(CC)CCNC(=O)c1c(C)[nH]c(/C=C2\C(=O)Nc3ccc(Cl)cc32)c1C` [SU-11652], the IC50 in data set [1] came out at 3 µM; in data set [2], 3 µM; in data set [3] it was 3 µM; in data set [4], 8 µM.

B1: Serine/threonine-protein kinase Nek2 (Homo sapiens), P51955 T175A (protein)
chain: MPSRAEDYEVLYTIGTGSYGRCQKIRRKSDGKILVWKELDYGSMTEAEKQMLVSEVNLLRELKHPNIVRYYDRIIDRTNTTLYIVMEYCEGGDLASVITKGTKERQYLDEEFVLRVMTQLTLALKECHRRSDGGHTVLHRDLKPANVFLDGKQNVKLGDFGLARILNHDTSFAKAFVGTPYYMSPEQMNRMSYNEKSDIWSLGCLLYELCALMPPFTAFSQKELAGKIREGKFRRIPYRYSDELNEIITRMLNLKDYHRPSVEEILENPLIADLVADEQRRNLERRGRQLGEPEKSQDSSPVLSELKLKEIQLQERERALKAREERLEQKEQELCVRERLAEDKLARAENLLKNYSLLKERKFLSLASNPELLNLPSSVIKKKVHFSGESKENIMRSENSESQLTSKSKCKDLKKRLHAAQLRAQALSDIEKNYQLKSRQILGMR
On to B1, for which, in data set [5], the Km is 90 µM and the kcat is 17 min⁻¹.
